Measurements from patent US20220401483A1, “COMBINATION OF A T CELL THERAPY AND (S)-3-[4-(4-MORPHOLIN-4-YLMETHYL-BENZYLOXY)-L-OXO-L,3-DIHYDRO-ISOINDOL-2-YL]-PIPERIDINE-2,6-DIONE” (Juno Therapeutics, Inc., priority 2019, published 2022).

What was measured:
Assay type in all cases: cell-based, human
Aiolos = experiment: Intracellular Aiolos expression in stimulated anti-CD19 CAR-expressing T cells (flow cytometry MFI)
Method: (§1) T cell compositions containing anti-CD19 CAR-expressing T cells were generated from leukapheresis samples from three healthy human adult donors by a process including immunoaffinity-based selection of T cells (including CD4+ and CD8+ cells) from the samples, resulting in two compositions, enriched for CD8+ and CD4+ cells, respectively. The cells were incubated in the presence of (S)-3-[4-(4-morpholin-4-ylmethyl-benzyloxy)-1-oxo-1,3-dihydro-isoindol-2-yl]-piperidine-2,6-dione (Compound A) or 3-(5-amino-2-methyl-4-oxo-4H-quinazolin-3-yl)-piperidine-2,6-dione (Compound B), and expression of the transcription factors Ikaros and Aiolos was assessed. Cells of the enriched CD4+ and CD8+ compositions were separately activated with anti-CD3/anti-CD28 beads and subjected to lentiviral transduction with a vector encoding an anti-CD19 CAR. The anti-CD19 CAR contained an anti-CD19 scFv derived from a murine antibody (variable region derived from FMC63), an immunoglobulin-derived spacer, a transmembrane domain derived from CD28, a costimulatory region derived from 4-1BB, and a CD3-zeta intracellular signaling domain. The expression construct in the viral vector further contained sequences encoding a truncated receptor, which served as a surrogate marker for CAR expression, which was separated from the CAR sequence by a T2A ribosome skip sequence. Transduced populations then were separately incubated in the presence of stimulating reagents for cell expansion. Expanded CD8+ and CD4+ cells were formulated and cryopreserved separately and stored. The cryopreserved CD4+ and CD8+ anti-CD19 CAR-expressing cells from each donor were thawed, and combined at approximately a 1:1 CAR+CD4+:CD8+ ratio prior to use. Approximately 2.5×10^5 cells of the generated CAR+ T cell composition were stimulated overnight with 1 μg/ml of a CAR-specific anti-idiotypic antibody in the presence of 3-(5-amino-2-methyl-4-oxo-4H-quinazolin-3-yl)-piperidine-2,6-dione (Compound B) or (S)-3-[4-(4-morpholin-4-ylmethyl-benzyloxy)-1-oxo-1,3-dihydro-isoindol-2-yl]-piperidine-2,6-dione (Compound A) at concentrations ranging from 10 to 10000 nM or a vehicle control overnight at 37° C., 5% C02. Following overnight incubation, anti-CD19 CAR-expressing T cells were stained with antibodies and analyzed by flow cytometry to assess intracellular levels of Ikaros and Aiolos in CD4+ CAR+ or CD8+ CAR+ cells, as measured by median fluorescence intensity (MFI). Median fluorescence intensity (MFI) values for Ikaros and Aiolos were normalized and calculated as a percentage relative to vehicle control. […] The EC50 for reducing Aiolos and Ikaros expression was calculated as determined from the concentration of the inhibitor that reduced Aiolos or Ikaros MFI to 50% of its maximal MFI in the absence of the inhibitor.

RL tumor spheroids = experiment: RL tumor spheroid model with anti-CD19 CAR T cells; settings: Day 4; 1 μM Compound B, 0.01 μM or 0.1 μM Compound A
Method: Cytolytic activity was also assessed in a spheroid model. About 5,000 RL cells were plated 48 hours prior to addition of 5,000 anti-CD19 CAR T cells (1:1 E:T ratio). Anti-CD19 CAR T cells were co-cultured with RL tumor spheroids, in the presence of Compound B (1 μM) or Compound A (0.001 μM, 0.01 μM or 0.1 μM)).

Ikaros = experiment: Intracellular Ikaros expression in stimulated anti-CD19 CAR-expressing T cells (flow cytometry MFI)
Method: as §1

RL cells = experiment: Rescue of chronically stimulated CAR T cells cultured with RL cells; settings: Compound B 1 μM, Compound A 0.001, 0.01 or 0.1 μM
Method: The RL cells were further used to assess the ability of immunomodulatory compounds to rescue or reverse the anti-CD19 CAR T cells from exhaustion. Anti-CD19 CAR-expressing T cells were stimulated under conditions to induce chronic stimulation and then were subsequently treated (rescue) with Compound B (1 μM) or Compound A (0.001 μM, 0.01 μM or 0.1 μM), or a vehicle control. Long-term, chronic stimulation was carried out by stimulation of CAR T cells with 30 μg/mL plate-bound anti-idiotypic (anti-ID) antibody for 6 days, substantially as described in Example 3. After the chronic stimulation, the CAR-T cells were cultured with RL cells in the presence of Compound B or Compound A. Cytolytic activity was assessed over time by measuring tumor cell number in the culture.

[1] = overnight incubation, 1 μg/ml anti-idiotypic antibody, average of donors (range, 95% confidence interval)

Structure (SMILES): Cc1nc2cccc(N)c2c(=O)n1C1CCC(=O)NC1=O (stereo not drawn) [Compound B, 3-(5-amino-2-methyl-4-oxo-4H-quinazolin-3-yl)-piperidine-2,6-dione, reference compound]
intracellular Aiolos expression (Aiolos; 10 to 10000 nM, overnight): […] | sensitivity of RL tumor spheroids to compound (RL tumor spheroids): sensitive | intracellular Ikaros expression (Ikaros; 10 to 10000 nM, overnight): […] | CAR T cell cytolytic activity, RL cell growth (RL cells): substantially improved
